Data published in US10190094B2, “Methods and compositions related to induced sensory neurons” (priority 2013, dated 2019).
Where “and” joins values, the source holds several entries; their conditions need not be identical. Equal values may be shown once. Read-outs that look alike come from different tables or passages of the source.

Columns and labels:
[1] = tested on: MEFs; test: Reprogramming of MEFs in presence of EdU or mitotic inhibitor AraC; format: cell-based, mouse
Procedure: Immunohistochemistry, and RT-PCR: For immunofluorescence staining, cells were fixed 4% paraformaldehyde for 10 minutes at room temperature. Cells were then washed three times with PBS and subsequently permeabilized with 0.1% Triton X-100 (Sigma) in PBS. After washing and permeabilization cells were blocked in 5% horse serum for thirty minutes at room temperature. Primary staining was performed overnight at 4° C. in block. Secondary antibodies were diluted in blocking solution and stained room temperature for one hour. EdU staining was performed using Click-it EdU kit (C10337;Invitrogen) following manufacturer's instructions. […]
We examined whether the observed reprogramming of fibroblasts to the somatic sensory lineage requires cell division or specialized embryonic precursors. […] Second, to further block proliferation we applied the mitotic inhibitor arabinofuranosyl cytidine (AraC) to cultures continuously from three days post induction and quantified the number of Map2-positive cells on day 14.

[2] = tested on: Human iSNs (TRPA1, TRPM8, TRPV1); test: Calcium imaging of human iSNs exposed to TRP channel ligands; format: cell-based
[3] = tested on: BN1 and BN2 iSNs (TrpA1, TrpM8, TrpV1); test: Calcium imaging of mouse iSNs exposed to Trp channel ligands (Map2::GCAMP5.G); format: cell-based
[4] = human BN1 iSNs, KCl responders, 10 μM capsaicin, 100 μM menthol, 100 μM mustard oil
[5] = human BN2 iSNs, KCl responders, 10 μM capsaicin, 100 μM menthol, 100 μM mustard oil
[6] = mouse BN1 iSNs, KCl responders, 10 μM capsaicin, 100 μM menthol, 100 μM mustard oil
[7] = mouse BN2 iSNs, KCl responders, 10 μM capsaicin, 100 μM menthol, 100 μM mustard oil

Structure (SMILES)	inhibition of proliferative cells ([1]; 4 μM) [%]	effect of mitotic inhibition on number of neurons (Map2-positive cells) produced during reprogramming ([1]; applied continuously from three days post induction, counted day 14, BN1 or BN2)	iSNs exhibiting calcium transients in response to ligand [2, 4]	iSNs exhibiting calcium transients in response to ligand [2, 5]	iSNs exhibiting calcium transients in response to ligand [3, 6]	iSNs exhibiting calcium transients in response to ligand [3, 7]	iSNs exhibiting calcium transients in response to ligand [2]	iSNs exhibiting calcium transients in response to ligand [3]
Nc1ccn([C@@H]2O[C@H](CO)[C@@H](O)[C@@H]2O)c(=O)n1 [AraC, arabinofuranosyl cytidine]	> 90	did not significantly alter the number of neurons						
COc1cc(CNC(=O)CCCC/C=C/C(C)C)ccc1O [capsaicin]			4.4%±1.7	5.9%±3.3	19.7%±3.0	21.2%±3.5		
CC1CCC(C(C)C)C(O)C1 (stereo not drawn) [menthol]			4.4%±1.4	6.0%±2.3	15.4%±2.6	17.4%±4.3		
C=CCN=C=S [mustard oil, allyl isothiocyanate]							12.8%±4.5 and 8.8%±3.7	12.9%±3.8 and 12.5%±3.4
